{"source": "patent US12496460B2", "about": "“System and method for quantitative dosimetry of photodynamic therapy in skin” (Trustees of Dartmouth College, priority 2020, dated 2025)", "key": {"[1]": {"system": "PpIX fluorescence at AK treatment sites", "settings": "human, in vivo", "procedure": "Example 2—Human Skin Test Measurement: In this human testing, the system's 100 performance was evaluated on three patients undergoing their standard clinical PDT treatment at the Dartmouth-Hitchcock Dermatology Department for treatment of AKs using Levulan® (Sun Pharma Industries Ltd., Mumbai, India), a 20% ALA solution [see FIG. 2A]. […] The standard procedure involves treatment of a site (e.g. face, scalp, arms, or legs) which is cleaned using ethanol and followed by non-occluded topical application of the ALA; the patient is then transferred to a low-light rest area for a 60-minute incubation period. […] Fluorescence images from a treatment site are gathered before the ALA is applied, at the 60-minute incubation, and post-PDT treatment [see FIG. 2B]. Discomfort levels experienced by the imaged patients were recorded during light irradiation via verbal rating of the pain. The goal of performing dosimeter imaging using the system 100 during treatment is to correlate the measured PpIX accumulation and PDT-induced photobleaching to patient outcomes and generate thresholds that can be used for individualized treatment guidance [see FIG. 2C]. […] Images were pre-processed using Adobe DNG Converter software and analyzed using MATLAB and ImageJ to extract the RAW pixel values. […]"}, "[2]": {"system": "PpIX accumulation in athymic nude mice", "settings": "mouse, in vivo", "procedure": "Example 1—Preclinical In-vivo Murine Measurements: The nude mouse model was used to examine the system's 100 ability to capture in-vivo production of PpIX. The measurements were performed on five athymic nude mice fed a low-chlorophyll diet to minimize tissue autofluorescence. For imaging, the mice were placed under anesthesia and onto a heated pad to regulate their body temperature; the temperature was monitored using an IR camera (TG165, FLIR Systems Inc.) and kept in the 32° C.-36° C. range. AMELUZ® (Biofontera Inc., Boston, MA), a 10% aminolevulinic acid hydrochloride gel, was topically applied to the backs of the mice as to contain an ALA-applied area and a control area within the field-of-view of the system 100. The mice were kept in a low-light environment to prevent photobleaching of the accumulated PpIX. Images of the mice were taken at 10-minute intervals for the first hour with subsequent images at two and three hours of incubation. The mice were kept under anesthesia during the first hour, placed back in the cage, and briefly placed back under anesthesia for imaging at two and three hours of incubation. The imaging parameters used for these measurements were iOS-generated images with ISO 400 and exposure set to 1/10th sec. The images were processed in ImageJ, where the red pixels were isolated for region-of-interest (ROI) pixel intensity calculation.\nIn this murine model, it was possible to quantitatively observe the PpIX accumulation in the ALA-applied area as early as 10 minutes with a clear visual accumulation in the 20-30 minute timeframe. In contrast, the control region was relatively flat for the first hour with a moderate increase in fluorescence observed at the two hour and three hour measurements as the mice begin systematic accumulation of the PpIX."}}, "data": [{"smiles": "NCC(=O)CCC(=O)O", "note": "[ALA, aminolevulinic acid]", "values": [{"measurement": "average pixel value (PpIX fluorescence) at 60 min incubation", "setting": "[1]", "value": "21.1±6.1"}, {"measurement": "time at which PpIX accumulation is quantitatively observed in the ALA-applied area", "setting": "[2]; athymic nude", "value": 10, "unit": "min"}, {"measurement": "timeframe of clear visual PpIX accumulation", "setting": "[2]; athymic nude", "value": "20 to 30", "unit": "min"}, {"measurement": "course of PpIX fluorescence over the three hours of incubation", "setting": "[2]", "value": "monotonic increase"}]}]}
